Source: the supplement of paper PMC11208160

Experiment: recombinant UMI read abundance after kanamycin selection (control-corrected) (log10(CPM+1)); higher = more efficient recombination; extreme values may be limits of the assay; sequences stand for … in AGTGCAGAGAAAATCGGCCAGTTTTCTCTGCCTGCAGTCCGCATGCCGTGGGACCCCTTGGGTTCTAACCTGTTGCCTAGATTTATGCAGCGGACTGCCTTTCTCCCAAAGTGATAAACCGG…AGGTTGGTTTCACT; site = the 11-nt donor
In short: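 Two replicates each of selected and unselected plating were used in this pooled Escherichia coli screen of donor and donor-binding-loop pairs for the IS621 bridge recombinase. Selection was with IPTG (0.07 mM) and kanamycin. Counts of recombinant UMIs, amplified across the donor–target junction, were converted to CPM, averaged, scaled by control-derived factors and reported as log10(CPM+1).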
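Note: IS621 bridge recombinase in Escherichia coli cells against a fixed T5 target plasmid.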

| Sequence | recombinant UMI read abundance (log10) |
| --- | --- |
| ACCTAGACATGGACCGGTTTTCCCGGTAATCCGTATTTGGG (site AACTAGACTCC) | 0.0442 |
| ACCTAGACATGGACCGGTTTTCCCGGTAATCCGTATTTGGG (site ACATAGACTCC) | 0.00696 |
| ACCTAGACATGGACCGGTTTTCCCGGTAATCCGTATTTGGG (site ACCAAGACTCC) | 0.00495 |
| ACCTAGACATGGACCGGTTTTCCCGGTAATCCGTATTTGGG (site ACCCAGACTCC) | 0.00611 |
| ACCTAGACATGGACCGGTTTTCCCGGTAATCCGTATTTGGG (site ACCGAGACTCC) | 0 |
| ACCTAGACATGGACCGGTTTTCCCGGTAATCCGTATTTGGG (site ACCTAAACTCC) | 0 |
| ACCTAGACATGGACCGGTTTTCCCGGTAATCCGTATTTGGG (site ACCTACACTCC) | 0.0139 |
| ACCTAGACATGGACCGGTTTTCCCGGTAATCCGTATTTGGG (site ACCTAGACTAC) | 0.0239 |
| ACCTAGACATGGACCGGTTTTCCCGGTAATCCGTATTTGGG (site ACCTAGACTCA) | 0.0191 |
| ACCTAGACATGGACCGGTTTTCCCGGTAATCCGTATTTGGG (site ACCTAGACTCC) | 0.0334 |
| ACCTAGACATGGACCGGTTTTCCCGGTAATCCGTATTTGGG (site ACCTAGACTCG) | 0.634 |
| ACCTAGACATGGACCGGTTTTCCCGGTAATCCGTATTTGGG (site ACCTAGACTCT) | 0.00788 |
| ACCTAGACATGGACCGGTTTTCCCGGTAATCCGTATTTGGG (site ACCTAGACTGC) | 0.00778 |
| ACCTAGACATGGACCGGTTTTCCCGGTAATCCGTATTTGGG (site ACCTAGACTTC) | 0.00986 |
| ACCTAGACATGGACCGGTTTTCCCGGTAATCCGTATTTGGG (site ACCTAGCCTCC) | 0.0119 |
| ACCTAGACATGGACCGGTTTTCCCGGTAATCCGTATTTGGG (site ACCTAGGCTCC) | 0.0977 |
| ACCTAGACATGGACCGGTTTTCCCGGTAATCCGTATTTGGG (site ACCTAGTCTCC) | 0.0195 |
| ACCTAGACATGGACCGGTTTTCCCGGTAATCCGTATTTGGG (site ACCTATACTCC) | 0.333 |
| ACCTAGACATGGACCGGTTTTCCCGGTAATCCGTATTTGGG (site ACCTCGACTCC) | 0.00246 |
| ACCTAGACATGGACCGGTTTTCCCGGTAATCCGTATTTGGG (site ACCTGGACTCC) | 0.0143 |
| ACCTAGACATGGACCGGTTTTCCCGGTAATCCGTATTTGGG (site ACCTTGACTCC) | 0.0253 |
| ACCTAGACATGGACCGGTTTTCCCGGTAATCCGTATTTGGG (site ACGTAGACTCC) | 0.0154 |
| ACCTAGACATGGACCGGTTTTCCCGGTAATCCGTATTTGGG (site ACTTAGACTCC) | 0.0151 |

| Sequence | recombinant UMI read abundance (log10) |
| --- | --- |
| ACCTAGACATGGACCGGTTTTCCCGGTAATCCGTATTTGGG (site AGCTAGACTCC) | 0.0336 |
| ACCTAGACATGGACCGGTTTTCCCGGTAATCCGTATTTGGG (site ATCTAGACTCC) | 0.015 |
| ACCTAGACATGGACCGGTTTTCCCGGTAATCCGTATTTGGG (site CCCTAGACTCC) | 0.00828 |
| ACCTAGACATGGACCGGTTTTCCCGGTAATCCGTATTTGGG (site GCCTAGACTCC) | 0.00312 |
| ACCTAGACATGGACCGGTTTTCCCGGTAATCCGTATTTGGG (site TCCTAGACTCC) | 0.0161 |
| ACCTAGCCATGGACCGGTTTTCCCGGTAATCCGTATTTGCC (site ACCTAGCCTGG) | 0 |
| ACCTAGCCATGGACCGGTTTTCCCGGTAATCCGTATTTGCC (site CCCTAGCCTGG) | 0 |
| ACCTAGCCATGGACCGGTTTTCCCGGTAATCCGTATTTGCC (site GCCTAGCCTGG) | 0 |
| ACCTAGCCATGGACCGGTTTTCCCGGTAATCCGTATTTGCC (site TCCTAGCCTGG) | 0 |
| ACCTAGGCATGGACCGGTTTTCCCGGTAATCCGTATTTGGG (site ACCTAGACTCC) | 0.00318 |
| ACCTAGGCATGGACCGGTTTTCCCGGTAATCCGTATTTGGG (site ACCTAGCCTCC) | 0.0364 |
| ACCTAGGCATGGACCGGTTTTCCCGGTAATCCGTATTTGGG (site ACCTAGGCTCC) | 0.0121 |
| ACCTAGGCATGGACCGGTTTTCCCGGTAATCCGTATTTGGG (site ACCTAGTCTCC) | 0.0121 |
| ACCTCGACATGGACCGGTTTTCCCGGTAATCCGTATTTGGG (site ACCTAGACTCC) | 0.0526 |
| ACCTCGACATGGACCGGTTTTCCCGGTAATCCGTATTTGGG (site ACCTCGACTCC) | 0.00574 |
| ACCTCGACATGGACCGGTTTTCCCGGTAATCCGTATTTGGG (site ACCTGGACTCC) | 0.0333 |
| ACCTCGACATGGACCGGTTTTCCCGGTAATCCGTATTTGGG (site ACCTTGACTCC) | 0 |
| ACCTCTACATGGACCGGTTTTCCCGGTAATCCGTATTTGTG (site ACATCTACTCA) | 0.014 |
| ACCTCTACATGGACCGGTTTTCCCGGTAATCCGTATTTGTG (site ACCTCTACTCA) | 0.0203 |
| ACCTCTACATGGACCGGTTTTCCCGGTAATCCGTATTTGTG (site ACGTCTACTCA) | 0.0131 |
| ACCTCTACATGGACCGGTTTTCCCGGTAATCCGTATTTGTG (site ACTTCTACTCA) | 0.0231 |
| ACCTGGACATGGACCGGTTTTCCCGGTAATCCGTATTTGGG (site ACCTAGACTCC) | 0.00306 |
| ACCTGGACATGGACCGGTTTTCCCGGTAATCCGTATTTGGG (site ACCTCGACTCC) | 0.00694 |

| Sequence | recombinant UMI read abundance (log10) |
| --- | --- |
| ACCTGGACATGGACCGGTTTTCCCGGTAATCCGTATTTGGG (site ACCTGGACTCC) | 0.0305 |
| ACCTGGACATGGACCGGTTTTCCCGGTAATCCGTATTTGGG (site ACCTTGACTCC) | 0.0114 |
| ACCTTCGCATGGACCGGTTTTCCCGGTAATCCGTATTTGGC (site ACCTTCGCTGC) | 1.56 |
| ACCTTTCCATGGACCGGTTTTCCCGGTAATCCGTATTTGCT (site ACCTTTCCTAG) | 0 |
| ACGAAAACATGGACCGGTTTTCCCGGTAATCCGTATTTGTT (site ACGAAAACTAA) | 1.37 |
| ACGAAACCATGGACCGGTTTTCCCGGTAATCCGTATTTGGA (site ACGAAACCTTC) | 0 |
| ACGAAGGCATGGACCGGTTTTCCCGGTAATCCGTATTTGAC (site ACGAAGGCTGT) | 2.46 |
| ACGAAGTCATGGACCGGTTTTCCCGGTAATCCGTATTTGCA (site ACGAAGTCTTG) | 3.09 |
| ACGAAGTCATGGACCGGTTTTCCCGGTAATCCGTATTTGCA (site AGGAAGACTTG) | 0 |
| ACGACGGCATGGACCGGTTTTCCCGGTAATCCGTATTTGAA (site ACGACGGCTTT) | 1.59 |
| ACGAGGTCATGGACCGGTTTTCCCGGTAATCCGTATTTGAC (site ACGAGGTCTGT) | 2.91 |
| ACGCAACCATGGACCGGTTTTCCCGGTAATCCGTATTTGCT (site ACGCAACCTAG) | 0 |
| ACGCCGTCATGGACCGGTTTTCCCGGTAATCCGTATTTGGT (site ACGCCGTCTAC) | 1.61 |
| ACGCGAACATGGACCGGTTTTCCCGGTAATCCGTATTTGTC (site ACACGAACTGA) | 2.62 |
| ACGCGAACATGGACCGGTTTTCCCGGTAATCCGTATTTGTC (site ACCCGAACTGA) | 0 |
| ACGCGAACATGGACCGGTTTTCCCGGTAATCCGTATTTGTC (site ACGCGAACTGA) | 2.38 |
| ACGCGAACATGGACCGGTTTTCCCGGTAATCCGTATTTGTC (site ACTCGAACTGA) | 0 |
| ACGCGTACATGGACCGGTTTTCCCGGTAATCCGTATTTGGA (site ACGCGTACTTC) | 1.12 |
| ACGGAGACATGGACCGGTTTTCCCGGTAATCCGTATTTGCA (site ACGGAGACTTG) | 2.64 |
| ACGGAGACATGGACCGGTTTTCCCGGTAATCCGTATTTGCA (site AGGAAGACTTG) | 0 |
| ACGGCCTCATGGACCGGTTTTCCCGGTAATCCGTATTTGGT (site ACGGCCTCTAC) | 2.1 |
| ACGGCGTCATGGACCGGTTTTCCCGGTAATCCGTATTTGTC (site ACGGCGTCTGA) | 3.22 |
